Source: patent publication US10676446B2, “Bicyclic quinazolinone derivatives” (Hoffmann-La Roche Inc., priority 2015, dated 2020)

Target: human ATX (autotaxin, ENPP2), His-tagged (Homo sapiens (Human), UniProt Q13822)
Test: Human ATX enzyme inhibition assay (fluorescence quenching, MR121 substrate)
Assay type: biochemical
Settings: 30 nM ATX, 1 μM MR121 substrate, 30° C., pH 8.0
Experimental: Human ATX Enzyme Inhibition Assay
ATX inhibition was measured by a fluorescence quenching assay using a specifically labeled substrate analogue (MR121 substrate). To obtain this MR121 substrate, BOC and TBS protected 6-amino-hexanoic acid (R)-3-({2-[3-(2-{2-[2-(2-amino-ethoxy)-ethoxy]-ethoxy}-ethoxy)-propionylamino]-ethoxy}-hydroxy-phosphoryloxy)-2-hydroxy-propyl ester (Ferguson et al., Org. Lett. 2006, 8, 2023) was labeled with MR121 fluorophore [CAS RN 185308-24-1], 1-(3-carboxypropyl)-11-ethyl-1,2,3,4,8,9,10,11-octahydro-dipyrido[3,2-b:2′,3′-i]phenoxazin-13-ium) on the free amine of the ethanolamine side and then, after deprotection, subsequently with tryptophan on the side of the aminohexanoic acid.
Assay working solutions were made as follows:
Assay buffer (50 mM Tris-HCl, 140 mM NaCl, 5 mM KCl, 1 mM CaCl2, 1 mM MgCl2, 0.01% Triton-X-100, pH 8.0;
ATX solution: ATX (human His-tagged) stock solution (1.08 mg/mL in 20 mM bicine, pH 8.5, 0.15 M NaCl, 10% glycerol, 0.3% CHAPS, 0.02% NaN3), diluted to 1.4-2.5× final concentration in assay buffer;
MR121 substrate solution: MR121 substrate stock solution (800 μM MR121 substrate in DMSO), diluted to 2-5× final concentration in assay buffer.
Test compounds (10 mM stock in DMSO, 8 μL) were obtained in 384 well sample plates (Corning Costar #3655) and diluted with 8 μL DMSO. Row-wise serial dilutions were made by transferring 8 μL cpd solution to the next row up to row O. The compound and control solutions were mixed five times and 2 μL were transferred to 384 well assay plates (Corning Costar #3702). Then, 15 μL of 41.7 nM ATX solution was added (30 nM final concentration), mixed five times and then incubated for 15 minutes at 30° C. 10 μL of MR121 substrate solution was added (1 μM final concentration), mixed 30 times and then incubated for 15 minutes at 30° C.

Row | Structure (SMILES) | IC50
1 | CNC(=O)C[C@@H](NC(=O)Cn1cnc2ccc(N3CCN(C(C)=O)CC3)cc2c1=O)c1ccc(Cl)cc1 [Example 1, (3R)-3-[[2-[6-(4-Acetylpiperazin-1-yl)-4-oxoquinazolin-3-yl]acetyl]amino]-3-(4-chlorophenyl)-N-methylpropanamide] | 0.269 µM
2 | CC(=O)N1CCN(c2ccc3ncn(CC(=O)NC(CC(=O)N(C)C)c4ccc(Cl)cc4)c(=O)c3c2)CC1 (stereo not drawn) [Example 2] | 0.36 µM
3 | CC(=O)N1CCN(c2ccc3ncn(CC(=O)NC(CC(=O)Nc4ccccc4)c4ccc(Cl)cc4)c(=O)c3c2)CC1 (stereo not drawn) [Example 3] | 0.198 µM
4 | CNC(=O)CC(NC(=O)Cn1cnc2ccc(N3CCN(C(C)=O)CC3)cc2c1=O)c1ccc(C(F)(F)F)cc1 (stereo not drawn) [Example 4] | 0.17 µM
5 | CC(=O)N1CCN(c2ccc3ncn(CC(=O)NC(CC(=O)N(C)C)c4ccc(C(F)(F)F)cc4)c(=O)c3c2)CC1 (stereo not drawn) [Example 5] | 0.121 µM
6 | CC(=O)N1CCN(c2ccc3ncn(CC(=O)NC(CC(=O)NCC(C)C)c4ccc(C(F)(F)F)cc4)c(=O)c3c2)CC1 (stereo not drawn) [Example 6] | 0.979 µM
7 | CC(=O)N1CCN(c2ccc3ncn(CC(=O)NC(CC(=O)Nc4ccccc4)c4ccc(C(F)(F)F)cc4)c(=O)c3c2)CC1 (stereo not drawn) [Example 7] | 0.084 µM
8 | CC(=O)N1CCN(c2ccc3ncn(CC(=O)NC(CC(=O)NCc4ccccc4)c4ccc(C(F)(F)F)cc4)c(=O)c3c2)CC1 (stereo not drawn) [Example 8] | 0.279 µM
9 | CNC(=O)C[C@@H](NC(=O)Cn1cnc2ccc(N3CCN(C(C)=O)CC3)cc2c1=O)c1ccc([N+](=O)[O-])cc1 [Example 9, (3R)-3-[[2-[6-(4-Acetylpiperazin-1-yl)-4-oxoquinazolin-3-yl]acetyl]amino]-N-methyl-3-(4-nitrophenyl)propanamide] | 0.054 µM
10 | CC(=O)N1CCN(c2ccc3ncn(CC(=O)NCc4ccc(Cl)cc4)c(=O)c3c2)CC1 [Example 10, 2-[6-(4-Acetylpiperazin-1-yl)-4-oxoquinazolin-3-yl]-N-[(4-chlorophenyl)methyl]acetamide] | 0.096 µM
11 | CC(=O)N1CCN(c2ccc3ncn(CC(=O)NCc4ccc(Cl)nc4)c(=O)c3c2)CC1 [Example 11] | 0.119 µM
12 | CC(=O)N1CCN(c2ccc3ncn(CC(=O)NCc4ccc(Cl)cn4)c(=O)c3c2)CC1 [Example 12] | 0.148 µM
13 | CC(=O)N1CCN(c2ccc3ncn(CC(=O)NC(C)c4ccc(Cl)cc4)c(=O)c3c2)CC1 (stereo not drawn) [Example 13] | 0.478 µM
14 | CC(=O)N1CCN(c2ccc3ncn(CC(=O)NCc4ccc(F)cc4)c(=O)c3c2)CC1 [Example 14] | 1.47 µM
15 | CC(=O)N1CCN(c2ccc3ncn(CC(=O)NCc4ccc5c(c4)OCO5)c(=O)c3c2)CC1 [Example 15] | 0.415 µM
16 | CC(=O)N1CCN(c2ccc3ncn(CC(=O)NCc4ccc(C(F)(F)F)nc4)c(=O)c3c2)CC1 [Example 16] | 0.207 µM
17 | CC(=O)N1CCN(c2ccc3ncn(CC(=O)NCc4ccc(C(F)(F)F)cc4)c(=O)c3c2)CC1 [Example 17] | 0.137 µM
18 | CC(=O)N1CCN(c2ccc3ncn(CC(=O)NCc4ccc(C#N)nc4)c(=O)c3c2)CC1 [Example 18] | 0.014 µM
19 | CC(=O)N1CCN(c2ccc3ncn(CC(=O)NCc4ccc(C#N)cc4)c(=O)c3c2)CC1 [Example 19] | 0.13 µM
20 | CC(=O)N1CCN(c2ccc3ncn(CC(=O)NCc4ccc(OC(F)(F)F)cc4)c(=O)c3c2)CC1 [Example 20] | 0.005 µM
21 | CC(=O)N1CCN(c2ccc3ncn(CC(=O)NCc4ccc([N+](=O)[O-])cc4)c(=O)c3c2)CC1 [Example 21] | 0.052 µM
22 | CC(=O)N1CCN(c2ccc3ncn(CC(=O)NCc4ccc(Cl)c(Cl)c4)c(=O)c3c2)CC1 [Example 22] | 0.091 µM
23 | CC(=O)N1CCN(c2ccc3ncn(CC(=O)NCc4ccc(Cl)cc4Cl)c(=O)c3c2)CC1 [Example 23] | 0.072 µM
24 | CC(=O)N1CCN(c2ccc3ncn(CC(=O)NCc4ccc(Cl)c(F)c4)c(=O)c3c2)CC1 [Example 24] | 0.033 µM
25 | CC(=O)N1CCN(c2ccc3ncn(CC(=O)NCc4ccc(C#N)c(Cl)c4)c(=O)c3c2)CC1 [Example 25] | 0.016 µM
26 | CC(=O)N1CCN(c2ccc3ncn(CC(=O)NCc4ccc(F)c(OC(F)(F)F)c4)c(=O)c3c2)CC1 [Example 26] | 0.051 µM
27 | CC(=O)N1CCN(c2ccc3ncn(CC(=O)N[C@H](CC(N)=O)c4ccc(Cl)cc4)c(=O)c3c2)CC1 [Example 27] | 0.34 µM

Row | Structure (SMILES) | IC50
28 | CC(=O)N1CCN(c2ccc3ncn(CC(=O)NCc4ccc(C#N)c(F)c4)c(=O)c3c2)CC1 [Example 28, 2-[6-(4-Acetylpiperazin-1-yl)-4-oxoquinazolin-3-yl]-N-[(4-cyano-3-fluorophenyl)methyl]acetamide] | 0.027 µM
29 | CC(=O)N1CCN(c2ccc3ncn(CC(=O)NCc4ccc(C#N)cc4Cl)c(=O)c3c2)CC1 [Example 29] | 0.175 µM
30 | CC(=O)N1CCN(c2ccc3ncn(CC(=O)NCc4ccc(C#N)cc4F)c(=O)c3c2)CC1 [Example 30] | 0.139 µM
31 | CC(=O)N1CCN(c2ccc3ncn(CC(=O)NCc4c(F)cc(C#N)cc4F)c(=O)c3c2)CC1 [Example 31] | 0.331 µM
32 | COc1cc(C#N)ccc1CNC(=O)Cn1cnc2ccc(N3CCN(C(C)=O)CC3)cc2c1=O [Example 32] | 0.089 µM
33 | CC(=O)N1CCN(c2ccc3ncn(CC(=O)NCc4ccc(C#N)cc4OCC(F)(F)F)c(=O)c3c2)CC1 [Example 33] | 0.245 µM
34 | CC(=O)N1CCN(c2ccc3ncn(CC(=O)NCc4ccc(Cl)c(C(F)(F)F)c4)c(=O)c3c2)CC1 [Example 34] | 0.024 µM
35 | CC(=O)N1CCN(c2ccc3ncn(CC(=O)NCc4cccc(C#N)c4C)c(=O)c3c2)CC1 [Example 35] | 0.071 µM
36 | CC(=O)N1CCN(c2ccc3ncn(CC(=O)NCc4ccnc(Cl)c4)c(=O)c3c2)CC1 [Example 36] | 0.346 µM
37 | CC(=O)N1CCN(c2ccc3ncn(CC(=O)NCc4cccc([N+](=O)[O-])c4)c(=O)c3c2)CC1 [Example 37] | 0.073 µM
38 | CC(=O)N1CCN(c2ccc3ncn(CC(=O)NCc4ccc(Cl)c(OC(F)(F)F)c4)c(=O)c3c2)CC1 [Example 38] | 0.004 µM
39 | CC(=O)N1CCN(c2ccc3ncn(CC(=O)NCc4ccc(S(F)(F)(F)(F)F)cc4)c(=O)c3c2)CC1 [Example 39] | 0.012 µM
40 | CC(=O)N1CCN(c2ccc3ncn(CC(=O)NCc4ccc(S(C)(=O)=O)c(C)c4)c(=O)c3c2)CC1 [Example 40] | 1.56 µM
41 | CC(=O)N1CCN(c2ccc3ncn(CC(=O)NCc4cc(Cl)c(Cl)cn4)c(=O)c3c2)CC1 [Example 41] | 0.021 µM
42 | CC(=O)N1CCN(c2ccc3ncn(CC(=O)NCc4ccc(C)c(Cl)c4)c(=O)c3c2)CC1 [Example 42] | 0.14 µM
43 | CC(=O)N1CCN(c2ccc3ncn(CC(=O)N(C)Cc4ccc(Cl)cc4)c(=O)c3c2)CC1 [Example 43] | 0.112 µM
44 | CC(=O)N1CCN(c2ccc3ncn(CC(=O)N(C)Cc4ccc(Cl)c(Cl)c4)c(=O)c3c2)CC1 [Example 44] | 0.017 µM
45 | CC(=O)N1CCN(c2ccc3ncn(CC(=O)N(C)Cc4ccc(C#N)c(F)c4)c(=O)c3c2)CC1 [Example 45] | 0.038 µM
46 | CC(=O)N1CCN(c2ccc3ncn(CC(=O)N(C)Cc4cc(Cl)nc(Cl)c4)c(=O)c3c2)CC1 [Example 46] | 0.184 µM
47 | CC(=O)N1CCN(c2ccc3ncn(CC(=O)N4CCCC4c4ccc(Cl)cc4)c(=O)c3c2)CC1 (stereo not drawn) [Example 47] | 0.341 µM
48 | CC(=O)N1CCN(c2ccc3ncn(CC(=O)N4CCC[C@@H]4c4ccc(C)cc4)c(=O)c3c2)CC1 [Example 48] | 1.58 µM
49 | CC(=O)N1CCN(c2ccc3ncn(CC(=O)NCCc4ccc(Cl)c(Cl)c4)c(=O)c3c2)CC1 [Example 49] | 0.179 µM
50 | CC(=O)N1CCN(c2ccc3ncn(CC(=O)NCc4cc(-c5ccc(Cl)cc5)no4)c(=O)c3c2)CC1 [Example 50] | 0.456 µM
51 | CC(=O)N1CCN(c2ccc3ncn(CC(=O)NCc4noc(-c5ccc(Cl)cc5)n4)c(=O)c3c2)CC1 [Example 51] | 0.051 µM
52 | CNC(=O)CC(NC(=O)Cn1cnc2ccc(N3CCN(C(C)=O)CC3)cc2c1=O)c1ccc(Cl)c(Cl)c1 (stereo not drawn) [Example 52, 3-[[2-[6-(4-Acetylpiperazin-1-yl)-4-oxoquinazolin-3-yl]acetyl]amino]-3-(3,4-dichlorophenyl)-N-methylpropanamide] | 0.072 µM
53 | COC(=O)CCN(Cc1ccc(Cl)c(Cl)c1)C(=O)Cn1cnc2ccc(N3CCN(C(C)=O)CC3)cc2c1=O [Example 53, Methyl 3-[[2-[6-(4-acetylpiperazin-1-yl)-4-oxoquinazolin-3-yl]acetyl]-[(3,4-dichlorophenyl)methyl]amino]propanoate] | 0.018 µM
54 | CC(=O)N1CCN(c2ccc3ncn(CC(=O)N(CCC(=O)O)Cc4ccc(Cl)c(Cl)c4)c(=O)c3c2)CC1 [Example 54, 3-[[2-[6-(4-Acetylpiperazin-1-yl)-4-oxoquinazolin-3-yl]acetyl]-[(3,4-dichlorophenyl)methyl]amino]propanoic acid] | 0.831 µM
